According to patent US5703232A, “Process and solvate of 2-methyl-thieno-benzodiazepine” (Eli Lilly and Company, priority 1996, dated 1997):

Columns and labels:
[1] = detection of radiolabelled compound in saliva; type: in vivo
[2] = stability of the anhydrous crystalline forms; type: physicochemical; details: anhydrous crystalline form, suitability for commercial pharmaceutical formulations
mice [3] = assay: apomorphine-induced climbing behavior in mice; type: in vivo
Excerpt: (§1) The Form I olanzapine prepared by the process of this invention has useful central nervous system activity. […] For example, the anhydrous Form I compound has been assessed in a number of standard behavior tests predictive of antipsychotic activity. The claimed compound antagonised apomorphine-induced climbing behavior and hypothermia in mice. See Moore, N. A. et al Psychopharmacology 94 (2), 263-266 (1988).

mice [4] = assay: apomorphine-induced hypothermia in mice; type: in vivo
Excerpt: as §1

rats [5] = assay: conditioned avoidance response in rats; type: in vivo
rats [6] = assay: induction of catalepsy; type: in vivo; details: compared with doses required to block conditioned avoidance response
5-HT2B receptor = 5-HT2B receptor activity

Row | SMILES | detection in saliva [1] | stability of the polymorph [2] | antagonism of apomorphine-induced climbing behavior (mice [3]) | antagonism of apomorphine-induced hypothermia (mice [4]) | inhibition of conditioned avoidance response (rats [5]) | induction of catalepsy (rats [6]) | 5-HT2B receptor activity (5-HT2B receptor)
1 | Cc1cc2c(s1)Nc1ccccc1N=C2N1CCN(C)CC1 [2-methyl-4-(4-methyl-1-piperazinyl)-10H-thieno-[2,3-b][1,5]benzodiazepine] | can be detected in the saliva | – | – | – | – | – | –
2 | Cc1cc2c(s1)Nc1ccccc1N=C2N1CCN(C)CC1 [anhydrous Form I olanzapine, 2-methyl-4-(4-methyl-1-piperazinyl)-10H-thieno[2,3-b][1,5]benzodiazepine] | – | stable | antagonised | antagonised | inhibits | only at higher doses | 5-HT2B receptor activity
3 | Cc1cc2c(s1)Nc1ccccc1N=C2N1CCN(C)CC1 [anhydrous Form II olanzapine, 2-methyl-4-(4-methyl-1-piperazinyl)-10H-thieno[2,3-b][1,5]benzodiazepine] | – | metastable | – | – | – | – | –
